Results published in US12485107B2, “Methods for the prevention or treatment of cytokine storm” (Beth Israel Deaconess Medical Center, Inc., priority 2019, dated 2025).
Entries after “also recorded” stand apart in the source; their conditions may differ.

Experiments:
[1] = test system: RAW264.7 murine macrophages; format: cell-based; settings: 5 μM, 2 hours pre-treatment
[2] = test system: ID8 murine ovarian tumor cells; assay: Annexin V/propidium iodide flow cytometry of chemotherapy-treated ID8 cells; format: cell-based; settings: annexin V/PI; cisplatin 30 μM 48 hours, carboplatin 100 μM 72 hours, paclitaxel 1 μM 48 hours
Protocol: Chemotherapy-generated murine (ID8) and human (OVCAR5) ovarian tumor cell debris were prepared by re-feeding 70% confluent T150 flasks with complete medium plus 1 μM paclitaxel (Cayman Chemical, Ann Arbor, MI) or 100 μM carboplatin (Sigma Aldrich, Natick, MA) and incubating for 48 or 72 hours, respectively, at 37° C. Cisplatin-generated ID8 debris was prepared by re-feeding 70% confluent T150 flasks with complete medium plus 30 μM cisplatin (Sigma Aldrich, Natick, MA) and incubating for 48 hours at 37° C. The resulting floating population (e.g., dead cells or “debris”) was collected, counted via hemocytometer, and pelleted. The dead cells were resuspended with phosphate-buffered saline (PBS), pelleted, and resuspended again at the desired concentration in PBS.
Murine (ID8) or human (OVCAR5) ovarian tumor cells were treated with vehicle or a chemotherapeutic agent (e.g., cisplatin, carboplatin, or paclitaxel) as described. B/CMBA.Ov murine ovarian epithelial cells were treated with vehicle or PTUPB (1 or 5 μM) for 24 hours. The floating population (e.g., dead cells or “debris”) was collected, and the remaining adhered cells were trypsinized and combined with the dead cells. RAW264.7 murine macrophages were treated with vehicle or PTUPB (5 μM) for 24 hours. The floating population was collected and the remaining adhered cells were detached using a cell scraper (Corning Inc., Corning, NY) and combined with the dead cells. Cells were counted via hemocytometer, pelleted, and resuspended in PBS at 1×10^6 cells/mL. Next, 2×10^5 cells were stained with annexin V and propidium iodide (PI) according to FITC Annexin V/Dead Cell Apoptosis Kit protocol (Life Technologies, Carlsbad, CA). Staining was assessed using the BD LSR Fortessa (BD Biosciences, San Jose, CA) at the Dana-Farber Cancer Institute Jimmy Fund Flow Cytometry Core, and analyzed using FlowJo software (Tree Star Inc., Ashland, OR). Experiments were performed three times with similar results.

SMILES	cytokine storm released by macrophages stimulated with aflatoxin B1-generated Hepa 1-6 debris [1]	cell death in ID8 ovarian cells [2] [%]
COc1ccc(-n2nc(CCCNC(=O)Nc3ccc(C(F)(F)F)cc3)cc2-c2ccccc2)cc1 [Ome-21i, 1-(3-(1-(4-methoxyphenyl)-5-phenyl-1H-pyrazol-3-yl)propyl)-3-(4-(trifluoromethyl)phenyl)urea]	shows potency in down-regulating; also recorded: inhibited	–
N.N.O=C([O-])C1(C(=O)[O-])CCC1.[Pt+2] [carboplatin]	–	78
N.N.[Cl][Pt][Cl] [Cisplatin]	–	67
CC(=O)O[C@H]1C(=O)[C@@]2(C)[C@H]([C@H](OC(=O)c3ccccc3)[C@]3(O)C[C@H](OC(=O)[C@H](O)[C@@H](NC(=O)c4ccccc4)c4ccccc4)C(C)=C1C3(C)C)[C@]1(OC(C)=O)CO[C@@H]1C[C@@H]2O [paclitaxel]	–	56
